# Like-named read-outs stand apart in the source and are kept apart here.
# Legend:
# Alternaria solani = test: Fungicidal activity, fungi growth rate method, AS; assay type: cell-based; conditions: Alternaria solani; 50 μg/mL; read-out: Fungicidal activity, inhibition, AS
# wheat Gibberella zeae = test: microbe, parasite or virus in culture; assay type: cell-based; conditions: Fusarium graminearum
# Rhizoctonia cerealis = test: Fungicidal activity, fungi growth rate method, RC; assay type: cell-based; conditions: Ceratobasidium cereale; 50 μg/mL; read-out: Fungicidal activity, inhibition, RC
# [1] = tested on: tobacco mosaic virus (TMV); test: Anti-TMV protective activity (protection mode), live friction inoculation on tobacco seedlings; assay type: in vivo; conditions: Tobacco mosaic virus, read-out: Anti-TMV activity, Protection effect (inhibition)
# Pellicularia sasakii = test: Fungicidal activity, fungi growth rate method, PS; assay type: cell-based; conditions: 50 μg/mL
# [2] = tested on: tobacco mosaic virus (TMV); test: Anti-TMV inducing activity (induction mode), tobacco seedlings; assay type: in vivo; conditions: Tobacco mosaic virus, read-out: Anti-TMV activity, Induction effect (inhibition), 100 μg/mL, tobacco seedlings
# [3] = tested on: tobacco mosaic virus (TMV); test: Anti-TMV inactivation activity (inactivation mode), compound mixed with TMV before inoculation of tobacco leaves; assay type: in vivo; conditions: Tobacco mosaic virus, read-out: Anti-TMV activity, Inactivation effect (inhibition)
# [4] = tested on: tobacco mosaic virus (TMV); test: Anti-TMV curative activity (treatment mode), live friction inoculation on tobacco seedlings; assay type: in vivo; conditions: for inhibition at 100 µg/mL: Tobacco mosaic virus, read-out: Anti-TMV activity, Curative effect (inhibition), 100 μg/mL, tobacco seedlings, checked on seventh day
# Sclerotinia sclerotiorum = test: microbe, parasite or virus in culture; assay type: cell-based; conditions: Sclerotinia sclerotiorum; for inhibition at 50 µg/mL: 50 μg/mL; for EC90: read-out: EC90 against S. sclerotiorum in vitro
# Cercospora arachidicola = test: Fungicidal activity, fungi growth rate method, CA; assay type: cell-based; conditions: Mycosphaerella arachidis, 50 μg/mL
# [5] = tested on: Phytophthora infestans (Mont) de Bary; test: microbe, parasite or virus in culture; assay type: cell-based; conditions: Phytophthora infestans
# Botrytis cinerea = test: Fungicidal activity, fungi growth rate method, BC; assay type: cell-based; conditions: Botrytis cinerea, 50 μg/mL
# Physalospora piricola = test: Fungicidal activity, fungi growth rate method, PP; assay type: cell-based; conditions: 50 μg/mL
# [6] = read-out: Fungicidal activity, inhibition, GZ
# [7] = read-out: Fungicidal activity, inhibition, PS
# [8] = read-out: Fungicidal activity (inhibition) against SS: Sclerotinia sclerotiorum
# [9] = read-out: Fungicidal activity, inhibition, SS
# [10] = read-out: Fungicidal activity, inhibition, CA
# [11] = read-out: Fungicidal activity, inhibition, PI
# [12] = read-out: Fungicidal activity, inhibition, BC
# [13] = read-out: Fungicidal activity, inhibition, PP
SMILES,inhibition at 50 µg/mL (Alternaria solani) [%],inhibition at 50 µg/mL (wheat Gibberella zeae; [6]) [%],inhibition at 50 µg/mL (Rhizoctonia cerealis) [%],inhibition at 100 µg/mL [1] [%],inhibition at 50 µg/mL (Pellicularia sasakii; [7]) [%],inhibition at 100 µg/mL [2] [%],inhibition at 100 µg/mL [3] [%],inhibition at 100 µg/mL [4] [%],melting point [°C],inhibition at 50 µg/mL (Sclerotinia sclerotiorum; [8]) [%],inhibition at 50 µg/mL (Sclerotinia sclerotiorum; [9]) [%],inhibition at 50 µg/mL (Cercospora arachidicola; [10]) [%],"inhibition at 50 µg/mL [5, 11] [%]",inhibition at 50 µg/mL (Botrytis cinerea; [12]) [%],inhibition at 50 µg/mL (Physalospora piricola; [13]) [%],EC90 (Sclerotinia sclerotiorum) [µg/mL],also measured
"O=C(N/C(=C\c1ccccc1)C(=O)N1CCC(O)(c2ccc(Br)cc2)CC1)C1CC1 [Compound 1, (Z)-N-[1-[[4-(4-bromophenyl)-4-hydroxy-1-piperidinyl]carbonyl]-2-phenylethenyl]cyclopropanecarboxamide]",21,26,29,48,14,11,83,53,163 to 164,80 to 95,83,16,27,21,10,,"Anti-TMV activity, Curative effect (inhibition) ([4]; 100 μg/mL, tobacco seedlings, checked on seventh day): 54%"
"O=C(N/C(=C\c1ccccc1)C(=O)N1CCC(O)(c2ccc(Br)cc2)CC1)C1CCCCC1 [Compound 2, (Z)-N-[1-[[4-(4-bromophenyl)-4-hydroxy-1-piperidinyl]carbonyl]-2-phenylethenyl]cyclohexanecarboxamide]",15,22,16,43,19,77,81,50,124 to 126,100,100,12,23,15,7,565,
"CC(C)(C)OC(=O)N1CCC(C(=O)N/C(=C\c2ccccc2)C(=O)N2CCC(O)(c3ccc(Br)cc3)CC2)CC1 [Compound 3, (Z)-N-[1-[[4-(4-bromophenyl)-4-hydroxy-1-piperidinyl]carbonyl]-2-phenylethenyl]-1-Boc-piperidine-4-carboxamide]",32,34,26,51,23,0,14,59,145 to 147,60 to 80,75,25,19,24,21,,
"COc1ccc(C(=O)N/C(=C\c2ccccc2)C(=O)N2CCC(O)(c3ccc(Br)cc3)CC2)cc1 [Compound 5, (Z)-N-[1-[[4-(4-bromophenyl)-4-hydroxy-1-piperidinyl]carbonyl]-2-phenylethenyl]-4-methoxybenzamide]",13,11,7,48,13,2,49,1,195 to 197,60 to 80,80,9,18,13,7,,
"O=C(N/C(=C\c1ccccc1)C(=O)N1CCC(O)(c2ccc(Br)cc2)CC1)c1ccc(F)cc1 [Compound 6, (Z)-N-[1-[[4-(4-bromophenyl)-4-hydroxy-1-piperidinyl]carbonyl]-2-phenylethenyl]-4-fluorobenzamide]",31,44,51,45,54,6,50,15,129 to 130,,96,49,50,48,49,218,inhibition at 50 µg/mL (Pellicularia sasakii; read-out: Fungicidal activity (inhibition) against PS: Pellicularia sasakii): 54%; inhibition at 50 µg/mL (Cercospora arachidicola; read-out: Fungicidal activity (inhibition) against CA: Cercospora arachidicola): 49%; inhibition at 50 µg/mL ([5]; read-out: Fungicidal activity (inhibition) against PI: Phytophthora infestans (Mont) de Bary): 50%; inhibition at 50 µg/mL (Botrytis cinerea; read-out: Fungicidal activity (inhibition) against BC: Botrytis cinerea): 48%; inhibition at 50 µg/mL (Physalospora piricola; read-out: Fungicidal activity (inhibition) against PP: Physalospora piricola): 49%
"O=C(N/C(=C\c1ccccc1)C(=O)N1CCC(O)(c2ccc(Br)cc2)CC1)c1ccc(Cl)cc1 [Compound 7, (Z)-N-[1-[[4-(4-bromophenyl)-4-hydroxy-1-piperidinyl]carbonyl]-2-phenylethenyl]-4-chlorobenzamide]",25,71,18,50,20,1,31,39,193 to 194,,44,18,16,21,12,,inhibition at 50 µg/mL (wheat Gibberella zeae; read-out: Fungicidal activity (inhibition) against GZ: wheat Gibberella zeae): 71%
"O=C(N/C(=C\c1ccccc1)C(=O)N1CCC(O)(c2ccc(Br)cc2)CC1)c1ccc(Br)cc1 [Compound 8, (Z)-N-[1-[[4-(4-bromophenyl)-4-hydroxy-1-piperidinyl]carbonyl]-2-phenylethenyl]-4-bromobenzamide]",21,29,23,1,20,50,19,0,186 to 188,,50,18,26,18,6,,
"O=C(N/C(=C\c1ccccc1)C(=O)N1CCC(O)(c2ccc(Br)cc2)CC1)c1ccc(C(F)(F)F)cc1 [Compound 9, (Z)-N-[1-[[4-(4-bromophenyl)-4-hydroxy-1-piperidinyl]carbonyl]-2-phenylethenyl]-4-(trifluoromethyl)benzamide]",15,0,11,60,17,10,15,50,130 to 131,100,100,14,18,13,7,273,

# Source: patent US11166460B2, “α-amino acrylate microbicide, and preparation method therefor and uses thereof” (priority 2017, dated 2021)
